ChEMBL document CHEMBL5728247, “Kinase inhibitors for the treatment of disease” (2021)

What follows are compounds tested against Tyrosine-protein kinase BTK (Homo sapiens, UniProt Q06187) (assay: Kinase Assay: 1. Optimization of kinase concentration required to determine ATP Km,app. The assay was first performed at a high concentration of ATP (1 mM) against a dilution series of kinase in order to determine the amount of kinase required to elicit an approximately 80% change between the minimum and maximum TR-FRET emission ratios (the EC80 value).2. Determination of ATP Km,app. Using the concentration of enzyme determined in step 1, the assay was then performed against a dilution series of ATP in order to determine the amount of ATP required to elicit a 50% change between the minimum and maximum TR-FRET emission ratios (the EC50 value). This concentration of ATP was referred to as the “apparent” Km value for ATP, or the ATP Km,app.3. Optimization of kinase concentration required for assay at ATP Km,app. Using the ATP Km,app concentration of ATP determined in step 2, the kinase titration was repeated in order to determine the concentration of kinase required to elicit an approximately 80% change between the minimum and maximum TR-FRET emission ratios at the ATP Km,app concentration of ATP (the EC80 value). This was the concentration of kinase that will be used in an assay to determine an IC50 value for a compound of the invention.).
Chain of Tyrosine-protein kinase BTK (Q06187 whole entry): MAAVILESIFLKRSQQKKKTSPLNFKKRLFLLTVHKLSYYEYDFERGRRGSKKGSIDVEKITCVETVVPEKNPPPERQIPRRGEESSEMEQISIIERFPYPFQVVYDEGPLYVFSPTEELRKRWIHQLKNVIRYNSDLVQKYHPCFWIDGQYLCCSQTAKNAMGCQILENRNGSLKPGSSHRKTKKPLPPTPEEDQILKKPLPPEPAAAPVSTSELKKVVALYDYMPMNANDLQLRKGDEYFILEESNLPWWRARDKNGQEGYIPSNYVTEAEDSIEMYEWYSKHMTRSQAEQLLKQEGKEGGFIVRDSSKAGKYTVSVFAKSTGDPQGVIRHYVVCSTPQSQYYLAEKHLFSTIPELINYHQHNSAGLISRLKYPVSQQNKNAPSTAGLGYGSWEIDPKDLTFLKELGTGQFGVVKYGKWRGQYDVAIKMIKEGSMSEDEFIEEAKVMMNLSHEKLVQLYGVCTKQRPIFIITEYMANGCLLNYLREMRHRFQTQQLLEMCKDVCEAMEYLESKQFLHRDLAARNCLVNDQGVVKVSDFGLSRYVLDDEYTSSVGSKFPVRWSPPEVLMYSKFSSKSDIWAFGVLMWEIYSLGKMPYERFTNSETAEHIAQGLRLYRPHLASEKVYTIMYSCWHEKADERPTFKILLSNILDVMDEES

Row | SMILES | IC50
1 | C=CC(=O)Nc1cccc(N(C(=O)OCc2ccccc2)c2ccnc(Nc3cnn(C)c3)n2)c1 | 5.13 nM
2 | C=CC(=O)Nc1cccc(N(C(=O)OCc2ccccc2)c2ccnc(Nc3cnn(CCN4CCOCC4)c3)n2)c1 | 5.74 nM
3 | C=CC(=O)Nc1cccc(N(C(=O)OCc2ccccc2)c2ccnc(Nc3cnn(C4CCOCC4)c3)n2)c1 | 3.12 nM
